# Test results: publication PMC12040169 (PLOS Biology, 2025)
# Test: in vitro
# Conditions: human, hela cells, % viability
row,SMILES,"viability at 28.5 h, 10 µM [%]"
1,Cc1ccc(C)c(CC(=O)N(C)C2CCN(C3CCOCC3)CC2)c1 [CBK304964],87.4
2,COc1ccccc1CN(C)C(C)C(=O)Nc1sccc1C(N)=O (stereo not shown) [CBK306466],109
3,CC(CC(=O)O)CC(=O)N1CCN(c2ccccn2)CC1 (stereo not shown) [CBK286839],107
4,O=C(O)c1ccc(CNC(=O)c2ccc(Cl)c(S(=O)(=O)N3CCCC3)c2)cc1 [CBK297096],95.7
5,Brc1c(OCCNCCN2CCOCC2)ccc2ccccc12 [CBK268576G],115
6,Cc1ccc2c(c1)CC(=O)NC21CCN(Cc2cccc(Br)c2)CC1 [CBK039392],94.7
7,CC1(C)CC(NC(=O)C23CCC(C)(c4nc5ccccc5nc42)C3(C)C)CC(C)(C)N1 (stereo not shown) [CBK266559],99.3
8,Cc1nc2cc(C(=O)NC(C)c3ccccn3)ccc2n1C (stereo not shown) [CBK281822],84.2
9,CC(C)Nc1cc(SCc2ccc(Cl)c(Cl)c2)ncn1 [CBK103665],85.1
10,Cc1cc(C)n(-c2ccccc2O)n1 [CBK026493],102
11,CN(Cc1nncn1C)C(=O)c1cnc2c(c1)c(C(C)(C)C)nn2C [CBK304154],85.4
12,Cc1cc(NC(=O)CS(=O)(=O)c2cccc(C(F)(F)F)c2)on1 [CBK306015],85.5
13,COc1ccc(CC(=O)N2CCC(c3cc4cnccc4[nH]3)CC2)cc1 [CBK283451],87.2
14,Cc1ccc(NS(=O)(=O)c2cc(C(=O)N3CCN(Cc4ccc5c(c4)OCO5)CC3)ccc2C)cc1 [CBK268521],102
15,CC(=O)Nc1ccc(OCCO)cc1 [CBK149724],86.6
16,CC(=O)Nc1cccc(Oc2nccnc2-c2cnn(Cc3ccccc3)c2)c1 [CBK107096],101
17,O=C1CSC2(CCCCC2)N1Nc1ccccc1 [CBK020047],101
18,COc1ccc(S(=O)(=O)N2CCN(C(=O)c3ccc(C(C)(C)C)cc3)CC2)cc1 [CBK157251],111
19,O=C(Nc1ccc(-c2nnc(-c3ccco3)o2)cc1)C(c1ccccc1)c1ccccc1 [CBK263452],106
20,CC(C)(C)c1ccc(S(=O)(=O)N2CCN(CCC(=O)O)CC2)cc1 [CBK297089],103
21,CC(Sc1nc2cc(Cl)ccc2c(=O)n1CC1CCCO1)C(N)=O (stereo not shown) [CBK305935],99.6
22,O=C(O)c1cc2ncc(CCO)cn2n1 [CBK267635],99.6

row,SMILES,"viability at 28.5 h, 10 µM [%]"
1,Cc1cc(C)n2ncc(C(=O)N3CCCCC3c3ccccn3)c2n1 (stereo not shown) [CBK307257],90.4
2,O=C(O)CCCOc1nc(C2CC2)cc(C(F)(F)F)n1 [CBK286886],92
3,c1ccc(CCN2CCC(Oc3nccnc3OCCN3CCOCC3)CC2)nc1 [CBK082944],96
4,O[C@@H]1C[C@@H](c2nc(-c3ccc(F)cc3)no2)N(Cc2ncc[nH]2)C1 [CBK288849],121
5,CC(=O)N1CCN(C(=O)c2nn(-c3ccc(F)cc3)c3c2CCCCC3)CC1 [CBK295293],107
6,Cc1csc(NC(=O)CN2CCC(c3ccc(F)cc3)CC2)n1 [CBK283567],94.2
7,O=C(NCC(F)(F)F)c1cnc(-c2ccc(Cl)cc2)c(-c2ccco2)c1 [CBK037468],86.2
8,CN(C1=NS(=O)(=O)c2ccccc21)c1ccccc1C(=O)O [CBK287094],90
9,COc1cc(OC)c(NC(=O)CSc2ccccn2)cc1Cl [CBK267303],92.5
10,Cc1ccccc1C(=O)NCC(=O)Nc1cc2ccccc2c(Br)n1 [CBK063298],89.4
11,CC(=O)N1CCC2(CCCC[C@H]3CN(C(=O)C(C)C)CC[C@@H]3NC(=O)CNC2=O)CC1 [CBK292121],102
12,COc1ccc(NC(=O)CN2CCN(c3ccccc3OC)CC2)c([N+](=O)[O-])c1 [CBK269188],94.7
13,Cc1cc(I)cnc1NC(=O)CSc1ccc(Cl)cc1 [CBK266438],94.3
14,CC(NC(=O)c1cc(-c2ccccc2)nc2ccccc12)c1cccc(S(N)(=O)=O)c1 (stereo not shown) [CBK298285],79.5
15,C(=N\N1CCN(Cc2cccc3ccccc23)CC1)/c1ccncc1 [CBK263003],94.6
16,COc1ccc(CNC(=O)C2CC=CCC2C(=O)O)cc1OC (stereo not shown) [CBK267695],86.6
17,CC(C(=O)N1CCCCC1)n1sc2ccccc2c1=O (stereo not shown) [CBK116322],98.4
18,Cc1nn(C)c(Cl)c1S(=O)(=O)Nc1ccc2nsnc2c1 [CBK062222],69.6
19,O=C(Nc1ccc(F)cc1)c1sccc1NS(=O)(=O)c1cc(F)c(Br)cc1F [CBK004586],94.4
20,CN(C)C(C(=O)NCC1(C)COC1)c1ccc(Cl)cc1 (stereo not shown) [CBK281753],102
21,COc1ccc(CCNS(=O)(=O)c2cccc([N+](=O)[O-])c2)cc1OC [CBK263618],89.5
22,O=C(Nc1ccc2oc(-c3cccnc3)nc2c1)c1ccc(Br)o1 [CBK263436],112

row,SMILES,"viability at 28.5 h, 10 µM [%]"
1,CN(C)CCCNC(=O)COc1ccccc1 [CBK262189],88
2,O=C(O)C1CCN(C(=O)CSc2nnc(-c3ccccc3F)n2C2CCCC2)CC1 [CBK296971],115
3,CCCc1cc(C(N)=O)c(NC(=O)c2sc3ccccc3c2Cl)s1 [CBK268178],103
4,COc1cc2c(cc1OC)C(CCN)=NCC2 [CBK023947C],86.6
5,CC1CCN(CN2C(=O)C(=O)c3ccccc32)CC1 [CBK261304],91.7
6,O=C(c1n[nH]c2c1CCC2)N1CCC(c2ccccc2)C1 (stereo not shown) [CBK281851],87.9
7,Cc1nc2n(CCN3CCCCC3)c3ccccc3n2n1 [CBK278258C],91.5
8,CC(=O)N1CCCc2cc(C(O)CN3CCC(C)CC3)ccc21 (stereo not shown) [CBK282588],87.3
9,O=C(Nc1ccccc1[N+](=O)[O-])C1(c2ccccc2)CCN(S(=O)(=O)c2ccccc2)CC1 [CBK267796],85.9
10,CC(C)n1ccc2cc(C(=O)NC3CCOC(C)(C)C3)ccc21 (stereo not shown) [CBK304366],90.6
11,O=C(CN1CCN(c2cc(-c3ccsc3)ncn2)CC1)N1CCCC1 [CBK091074],99.9
12,CC(C(=O)N1c2ccccc2Sc2ccccc21)N1C(=O)c2ccccc2C1=O (stereo not shown) [CBK018045],105
13,CC(=O)N1CCN(C[C@@H]2C=C(C)[C@H](Cc3nnc(C(C)(C)C)o3)C[C@H]2C(C)C)CC1 [CBK289221],86
14,CCC(C)C(NC(=O)Cc1c[nH]c2ccccc12)C(=O)O (stereo not shown) [CBK286720],91
15,COc1cc(C(=O)Nc2ccc(-c3nc4ncccc4o3)cc2)ccc1OCc1ccc(Cl)cc1 [CBK033914],92.7
16,O=C(Nc1ccccc1C(F)(F)F)c1ccc(-n2cnnn2)cc1 [CBK300521],86.8
17,CCOc1ccc(N(Cc2cc3cc(C)ccc3nc2O)C(=O)c2ccccc2OC)cc1 [CBK265427],103
18,O=C(Nc1cccc(C(=O)O)c1)Nc1cccc(-c2ccccc2)c1 [CBK155451G],93.5
19,CCN1CCN(CC(=O)C(C#N)c2ccccc2)CC1 (stereo not shown) [CBK269423],92.8
20,CC(=O)Nc1ccc(S(=O)(=O)NC2(C(F)(F)F)C(=O)Nc3c2c(=O)[nH]c(=S)n3Cc2ccco2)cc1 (stereo not shown) [CBK268395],96.8
21,CN1CCN(c2nccnc2-c2ccco2)CC1 [CBK038050],86.7
22,CN(C)[C@@H]1CN(Cc2ccccc2O)C[C@H]1c1cn(C)c2ccccc12 [CBK284895],88.3

row,SMILES,"viability at 28.5 h, 10 µM [%]"
1,O=C(N/N=C/c1ccccc1Cl)c1ccc(C(=O)N/N=C/c2ccccc2Cl)cc1 [CBK261698],108
2,COc1cccc(CC(=O)N2CCCC2c2cc(Nc3nc(C)cc(C)n3)cc(C)n2)c1 (stereo not shown) [CBK285999],90.5
3,O=C(NC(c1ccccc1)c1ccccc1)C1(c2ccccc2)CCCC1 [CBK149536],96.8
4,CN1CCN(CCCNC(=O)N2CCN(c3cc(C(F)(F)F)ccn3)CC2)CC1 [CBK156431],93.7
5,COCCCn1c(=O)[nH]c2ncc(-c3cccc(/C=C/C(=O)O)c3)nc21 [CBK065107],104
6,COc1nc(-c2ccc(N(C)C)nc2)nn1C [CBK307317],100
7,O=S(=O)(Nc1ccc2[nH]ccc2c1)c1ccc(Br)cc1F [CBK153510],88.9
8,CC1CCc2nc3ccccc3c(C(=O)N(C)Cc3cnn(C)c3)c2C1 (stereo not shown) [CBK305749],96.9
9,Cc1ccc(C)c(OCC(=O)N(Cc2nc(-c3ccccc3)no2)C2CCCCC2)c1 [CBK269067],89.4
10,CC1(NC(=O)CC[N+]23CCN(CC2)CC3)CS(=O)(=O)CC1S(=O)(=O)[O-] (stereo not shown) [CBK262518],92
11,CN(CC(=O)N(C)CC(F)(F)F)Cc1cccnc1 [CBK282075],89.1
12,COc1cccc2c3c([nH]c12)C1(CCN(CCOc2ccccc2)CC1)N(C=O)CC3 [CBK039423],112
13,CCN(Cc1ccncc1)C(=O)NCc1c(Cl)cccc1Cl [CBK155144],107
14,COc1ccc([C@@]23CC[C@@H](NC(=O)Nc4cccc(Br)c4)C[C@@H]2N(C)CC3)cc1OC [CBK038225T],91.4
15,O=C(CN1CCC(Cc2ccccc2)CC1)Nc1ccc(F)c(Cl)c1 [CBK126387],92.4
16,Cc1ccc(C2(O)CCN(Cc3cnn(C)c3C)CC2)cc1 [CBK282736],96.5
17,CN1C[C@@H](NC(=O)Nc2ccccc2)C[C@H]1c1nc(-c2cccnc2)no1 [CBK288858],104
18,Cc1csc([C@H]2Cc3ccsc3[C@@H](C3CCOC3)N2)n1 (stereo partly shown) [CBK285089],102
19,COc1ccccc1CN1CC[C@H]2[C@@H](C1)[C@H](c1ccsc1)CN2C(=O)c1ccccc1 [CBK285617],96
20,Cc1cc(NC(=O)CN(C)CC(=O)Nc2ccc(Br)cc2C)no1 [CBK260700],92.9
21,Cc1nn(Cc2cccc3ccccc23)c(C)c1NC(=O)c1cccnc1 [CBK269946],90.6

# Same assay, conditions: human, hela cells, % viability, bulk resorufin, single well
row,SMILES,"viability at 28.5 h, 10 µM [%]"
1,O=C1NC(=O)C(=Cc2ccc(-c3ccc([N+](=O)[O-])cc3)o2)C(=O)N1 [CBK229904],114
